The results in this text go back to patent EP1960421B1, “NEW POLYPEPTIDES AND THEIR USE” (SEDERMA, priority 2005, dated 2007).

A short description of this data set: Solubility in the cell culture conditions (medium without foetal calf serum and few solvent). It is filed as physicochemical. The following applies: cell culture medium without foetal calf serum and few solvent (DMSO 0.08%). As to the method:
After 3 days of incubation, supernatants were collected and frozen. Survival was estimated on cell layer using a fluorescent probe. Collagen I was estimated using an original direct ELISA method. Results: TGF-b1 should be promoter of Collagen I synthesis. Statistical analysis were performed on Collagen I data (n=3 to n=5 / assay). Results obtained with molecules were compared to negative control. A Student t test for non paired values was used; significativity was obtained if p < 0.05 or p < 0.01. In our cell culture conditions (medium without foetal calf serum and few solvent), Pal-Gly-Lys-Thr-Thr-Lys-Ser was insoluble for concentrations > 5.4 ppm. Table 1: Effect of Pal-Gly-Lys-Thr-Thr-Lys-Ser (SEQ ID NO: 14) on NHDF's Collagen I. Results (from 4 independent experimentations) are in percent compared to the negative control.

Each structure is given as a SMILES string. Peptide text beside a SMILES is read from it. * marks the point of attachment. Palmitoyl = CCCCCCCCCCCCCCCC(=O)*

The compound `CCCCCCCCCCCCCCCC(=O)NCC(=O)N[C@@H](CCCCN)C(=O)N[C@H](C(=O)N[C@H](C(=O)N[C@@H](CCCCN)C(=O)N[C@@H](CO)C(=O)O)[C@@H](C)O)[C@@H](C)O` [N-Palmitoyl-Gly-Lys-Thr-Thr-Lys-Ser] (Palmitoyl-GKTTKS-OH) registered an insoluble for concentrations above 5.4 ppm.
